Data as given in patent publication US20040259079A1, “Substantially complete ribozyme libraries” (priority 1998, published 2004).
Where two headings read alike, the source gives them in different places.

Legend:
Format in all cases: cell-based
[1] = tested on: 5′TK cells (HeLa with HCV IRES-tk reporter); test: Gancyclovir sensitivity of 5′TK reporter cells, surviving colonies; parameters: key to number of surviving cell colonies: TMTC = too many colonies to count
Text: For gene identification, this reporter is stably transfected into HeLa cells (where HCV IRES activity has already been documented using hygromycin selection (FIG. 23). This “parental” cell population is called 5′TK.
Expression of the tk gene in these cells via the IRES confers sensitivity to the toxic effects of gancyclovir. Introduction of a ribozyme that inhibits expression of a cellular factor involved in IRES translation would result in a loss of tk expression and this cell would become gancyclovir resistant (see FIG. 23). As a control, a similar reporter plasmid was constructed without the IRES (or with a non-functioning mutant IRES), to verify that tk expression is IRES-dependent. To facilitate selection of the correct ribozyme from the library, it was necessary to start with a concentration of gancyclovir that effectively kills all parental cells, thus assuring a low background of false positives. To this end, 7.5×10^5 5′TK cells were exposed to various concentrations of gancyclovir and the number of surviving cell colonies is shown below. Due to anticipated heterogeneity in the original parental population, individual cell clones of the parental were also isolated and gancyclovir sensitivity was assayed as shown below in Table 12.

[2] = tested on: 2008 cell line (ovarian cell line sensitive to cisplatin); test: Cisplatin selection of vector or library transfected cells, surviving colonies
Description: Approximately 2×10^7 of the 2008 cell line (ovarian cell line sensitive to cisplatin) and UMscc10b were transfected by 200 μg of pAAV6Clib described in Example 2(A) using lipofectamine. The transfection efficiencies were from 27% to 35% by eGFP expression.
After transfection, about 5.4×10^6 to 7×10^6 of cells (1.5 to 1.9 of library equivalent ) containing library DNA were selected by multiple rounds of addition of cisplatin at increasing concentrations. […] Colonies derived from the library transfected cells growing out of high concentration of cisplatin were expanded.
To confirm the library transfected cells after selection are indeed more resistant to cisplatin than either the vector transfected or parental 2008 cells, we compared the killing curve of the cisplatin of there three cell population. […] Ribozyme sequences were rescued from the library transfected cells which were selected at high concentration were rescued by PCR by the method described in Example D and identified by sequencing. After confirming the function of ribozymes rescued from the resistant cells, we will identify genes controlling cisplatin sensitivity again based on the sequence of the ribozyme binding arms and GUC by the methods described in the next example.

[3] = tested on: HIV; test: HIV challenge of stable Molt4/8 cell lines, P24 production (SAVA); details: for % inhibition of HIV replication: Table 19, U5 ribozyme from RNA polymerase III promoters, P24 at 7 days, vs ALNL-6 control
Description: Promoter efficacy was measured by using them to express a ribozyme against the US region of HIV and measuring the resulting anti-HIV effect for each promoter. […] The HIV protease inhibitor, indinavir, was included in these experiments as a positive control at 10 and 100 nM concentrations.

[4] = tested on: A549 and HeLa cells; test: Puromycin selection of transiently transfected cells; details: cells receiving puromycin resistance genes (pPur); 600ng/ml puromycin
Description: Drug selection is typically used to obtain cells which stably express the drug resistance gene; however, we have found conditions under which cells transfected with puromycin-expressing vectors can survive for several days in the presence of puromycin, even when not stably transfected or transduced. During the same time period, untransfected cells are rapidly killed by the drug. Plasmids encoding puromycin resistance genes (pPur) were transfected into A549 and HeLa cells, and 600ng/ml puromycin was added to the culture medium. As a control, cells were transfected with plasmids lacking puromycin resistance genes (AMFT). The number of cells was determined at 1-day intervals following transfection. Cells lacking the puromycin resistance gene were killed within 2 or 3 days after the addition of puromycin, whereas cells receiving puromycin resistance genes survived as long as 7-9 days (FIG. 27). Target validation could therefore be performed on these transiently transfected cells between 2-9 days following puromycin selection. Other drugs which rapidly kill cells can also be employed in this type of experiment.

[5] = tested on: melanoma cell line G-361; test: TRAIL killing of G-361 cells; details: 200 ng/ml TRAIL; 2 days after adding; most efficient condition
Description: Selection of ribozymes (from the Rz library) capable of blocking TRAIL-induced apoptosis was investigated in the melanoma cell line G-361 (ATCC #CRL-1424). To determine their initial sensitivity to TRAIL, G-361 cells were plated at a density of 1×10^4 cells/cm^2. Recombinant TRAIL (Alexis Biochemicals) was applied at concentrations between 10 and 200 ng/ml for anywhere from 16 hours to 2 days.

Molecule: Nc1nc(O)c2ncn(COC(CO)CO)c2n1 [Gancyclovir, gancyclovir]
- number of surviving cell colonies ([1]; Clone 1, gancyclovir 20 μM): 20
- number of surviving cell colonies ([1]; Clone 1, gancyclovir 40 μM): 4
- number of surviving cell colonies ([1]; Clone 1, gancyclovir 80 μM): 0
- number of surviving cell colonies ([1]; Clone 2, gancyclovir 20 μM): 0
- number of surviving cell colonies ([1]; Clone 2, gancyclovir 40 μM): 0
- number of surviving cell colonies ([1]; Clone 2, gancyclovir 80 μM): 0
- number of surviving cell colonies ([1]; Clone 3, gancyclovir 20 μM): 0
- number of surviving cell colonies ([1]; Clone 3, gancyclovir 40 μM): 0
- number of surviving cell colonies ([1]; Clone 3, gancyclovir 80 μM): 0
- number of surviving cell colonies ([1]; Clone 4, gancyclovir 20 μM): TMTC
- number of surviving cell colonies ([1]; Clone 4, gancyclovir 40 μM): TMTC
- number of surviving cell colonies ([1]; Clone 4, gancyclovir 80 μM): 60
- number of surviving cell colonies ([1]; Clone 5, gancyclovir 20 μM): 0
- number of surviving cell colonies ([1]; Clone 5, gancyclovir 40 μM): 0
- number of surviving cell colonies ([1]; Clone 5, gancyclovir 80 μM): 0
- number of surviving cell colonies ([1]; Parental 5′TK, gancyclovir 4 μM, 7.5×10^5 cells exposed): 109
- number of surviving cell colonies ([1]; Parental 5′TK, gancyclovir 8 μM): 38
- number of surviving cell colonies ([1]; Parental 5′TK, gancyclovir 12 μM): 17
- number of surviving cell colonies ([1]; Parental 5′TK, gancyclovir 16 μM): 15
- number of surviving cell colonies ([1]; Parental 5′TK, gancyclovir 20 μM): 9
- number of surviving cell colonies ([1]; Parental 5′TK, gancyclovir 40 μM): 7
- number of surviving cell colonies ([1]; Parental 5′TK, gancyclovir 60 μM): 2
- number of surviving cell colonies ([1]; Parental 5′TK, gancyclovir 80 μM): 2
- number of surviving cell colonies ([1]; Parental 5′TK, gancyclovir 100 μM): 1
- sensitivity to gancyclovir (in words) ([1]; individual clones #2, 3 and 5, as low as 20 μM): highly sensitive

Molecule: N.N.[Cl][Pt][Cl] [cisplatin]
- % of surviving colonies ([2]; Library transfected cells (pAAV6Clib), cisplatin 4 uM, after multiple rounds of selection): 18.4%
- % of surviving colonies ([2]; Library transfected cells, cisplatin 5 uM): 10.3%
- % of surviving colonies ([2]; Library transfected cells, cisplatin 6 uM): 5.2%
- % of surviving colonies ([2]; Library transfected cells, cisplatin 7 uM): 2.3%
- % of surviving colonies ([2]; Library transfected cells, cisplatin 8 uM): 0%
- % of surviving colonies ([2]; vector transfected cells, cisplatin 4 uM, after multiple rounds of selection): 2.14%
- % of surviving colonies ([2]; vector transfected cells, cisplatin 5 uM): 0.97%
- % of surviving colonies ([2]; vector transfected cells, cisplatin 6 uM): 0.79%
- % of surviving colonies ([2]; vector transfected cells, cisplatin 7 uM): 0%
- % of surviving colonies ([2]; vector transfected cells, cisplatin 8 uM): 0%

Molecule: CC(C)(C)NC(=O)[C@@H]1CN(Cc2cccnc2)CCN1C[C@@H](O)C[C@@H](Cc1ccccc1)C(=O)N[C@H]1c2ccccc2C[C@H]1O [indinavir]
- inhibition at 0.01 µM ([3]; Human immunodeficiency virus 1, MOLT-4, Table 19, positive control at 10 nM, MOI 0.02, read-out: % inhibition of HIV replication): 94.7 ± 2.8%
- inhibition at 0.01 µM ([3]; Human immunodeficiency virus 1, MOLT-4, Table 19, positive control at 10 nM, MOI 0.04, read-out: % inhibition of HIV replication): 85.7 ± 4%
- inhibition at 0.01 µM ([3]; Human immunodeficiency virus 1, MOLT-4, Table 19, positive control at 10 nM, MOI 0.08, read-out: % inhibition of HIV replication): 61.6 ± 9.5%
- inhibition at 0.1 µM ([3]; Human immunodeficiency virus 1, MOLT-4, Table 19, positive control at 100 nM, MOI 0.02, read-out: % inhibition of HIV replication): 97.8 ± 1.7%
- inhibition at 0.1 µM ([3]; Human immunodeficiency virus 1, MOLT-4, Table 19, positive control at 100 nM, MOI 0.04, read-out: % inhibition of HIV replication): 95.9 ± 0.2%
- inhibition at 0.1 µM ([3]; Human immunodeficiency virus 1, MOLT-4, Table 19, positive control at 100 nM, MOI 0.08, read-out: % inhibition of HIV replication): 89.5 ± 1.2%
- inhibition at 0.01 µM ([3]; Human immunodeficiency virus 1, MOLT-4, Table 20, positive control at 10 nM, MOI 0.02, read-out: % inhibition (anti-HIV effect)): 81.3 ± 1.2%
- inhibition at 0.01 µM ([3]; Human immunodeficiency virus 1, MOLT-4, Table 20, positive control at 10 nM, MOI 0.04, read-out: % inhibition (anti-HIV effect)): 70.9 ± 2.1%
- inhibition at 0.01 µM ([3]; Human immunodeficiency virus 1, MOLT-4, Table 20, positive control at 10 nM, MOI 0.08, read-out: % inhibition (anti-HIV effect)): 57.8 ± 4.8%
- inhibition at 0.1 µM ([3]; Human immunodeficiency virus 1, MOLT-4, Table 20, positive control at 100 nM, MOI 0.02, read-out: % inhibition (anti-HIV effect)): 89.1 ± 0.5%
- inhibition at 0.1 µM ([3]; Human immunodeficiency virus 1, MOLT-4, Table 20, positive control at 100 nM, MOI 0.04, read-out: % inhibition (anti-HIV effect)): 86.1 ± 1.9%
- inhibition at 0.1 µM ([3]; Human immunodeficiency virus 1, MOLT-4, Table 20, positive control at 100 nM, MOI 0.08, read-out: % inhibition (anti-HIV effect)): 82 ± 1.2%
- inhibition at 0.01 µM ([3]; Human immunodeficiency virus 1, MOLT-4, Table 22, 10 nM, MOI 0.02, read-out: % inhibition): 74.8 ± 1.5%
- inhibition at 0.01 µM ([3]; Human immunodeficiency virus 1, MOLT-4, Table 22, 10 nM, MOI 0.04, read-out: % inhibition): 73.9 ± 3.6%
- inhibition at 0.01 µM ([3]; Human immunodeficiency virus 1, MOLT-4, Table 22, 10 nM, MOI 0.08, read-out: % inhibition): 68.8 ± 4.5%
- inhibition at 0.1 µM ([3]; Human immunodeficiency virus 1, MOLT-4, Table 22, 100 nM, MOI 0.02, read-out: % inhibition): 98.5 ± 0.5%
- inhibition at 0.1 µM ([3]; Human immunodeficiency virus 1, MOLT-4, Table 22, 100 nM, MOI 0.04, read-out: % inhibition): 95.5 ± 0.6%
- inhibition at 0.1 µM ([3]; Human immunodeficiency virus 1, MOLT-4, Table 22, 100 nM, MOI 0.08, read-out: % inhibition): 93.3 ± 0.4%

Molecule: COc1ccc(C[C@H](N)C(=O)N[C@H]2[C@@H](O)[C@H](n3cnc4c(N(C)C)ncnc43)O[C@@H]2CO)cc1 [puromycin]
- survival time in the presence of puromycin [4]: 7 to 9 days

Molecule: Alanine
- % inhibition of HIV replication ([3]; MOI 0.02): 75.7 ± 21%
- % inhibition of HIV replication ([3]; MOI 0.04): 71.0 ± 23%
- % inhibition of HIV replication ([3]; MOI 0.08): 8.7 ± 24%

Molecule: Serine
- % inhibition of HIV replication ([3]; MOI 0.02): 96.6%
- % inhibition of HIV replication ([3]; MOI 0.04): 91.8%
- % inhibition of HIV replication ([3]; MOI 0.08): 82.0%

B1: TRAIL: Recombinant TRAIL (Alexis Biochemicals), death receptor ligand (protein, UniProt P50591 1-281, looked up)
Tumor necrosis factor ligand …: MAMMEVQGGPSLGQTCVLIVIFTVLLQSLCVAVTYVYFTNELKQMQDKYSKSGIACFLKEDDSYWDPNDEESMNSPCWQVKWQLRQLVRKMILRTSEETISTVQEKQQNISPLVRERGPQRVAAHITGTRGRSNTLSSPNSKNEKALGRKINSWESSRSGHSFLSNLHLRNGELVIHEKGFYYIYSQTYFRFQEEIKENTKNDKQMVQYIYKYTSYPDPILLMKSARNSCWSKDAEYGLYSIYQGGIFELKENDRIFVSVTNEHLIDMDHEASFFGAFLVG
- killing of G-361 cells [5]: < 100%
